Measurements taken from ChEMBL document CHEMBL1150639, “Antiplasmodial compounds from Cochlospermum tinctorium” (J Nat Prod, 2002).

Test system: Plasmodium falciparum
Experiment: Antiplasmodial activity against chloroquine-sensitive Plasmodium falciparum 3D7
Assay type: functional, organism-based

Structure (SMILES) | IC50 [µM]
C=C(C)[C@@H]1CC[C@]2(C(=O)O)CC[C@]3(C)[C@H](CC[C@@H]4[C@@]5(C)C[C@@H](O)[C@H](O)C(C)(C)[C@@H]5CC[C@]43C)[C@@H]12 [ALPHITOLIC ACID] | 35
CCCCCCCCCCCC(=O)CCO | 68
